Laboratory results taken from patent publication US8927717B1, “Thiochromeno[2,3-c]quinolin-12-one derivatives, preparation method and application thereof” (National Defense Medical Center, priority 2014, dated 2015).

Columns and labels:
CCRF-CEM = format: cell-based; settings: Leukemia; 10^−5 molar; 48 hours; SRB
HL-60(TB) = format: cell-based; settings: Leukemia; 10^−5 molar; 48 hours; SRB
K-562 = format: cell-based; settings: Leukemia; 10^−5 molar; 48 hours; SRB
MOLT-4 = format: cell-based; settings: Leukemia; 10^−5 molar; 48 hours; SRB
RPMI-8226 = format: cell-based; settings: Leukemia; 10^−5 molar; 48 hours; SRB
SR = format: cell-based; settings: Leukemia; 10^−5 molar; 48 hours; SRB
A549/ATCC = format: cell-based; settings: Non-small cell lung cancer; 10^−5 molar; 48 hours; SRB
HOP-62 = format: cell-based; settings: Non-small cell lung cancer; 10^−5 molar; 48 hours; SRB
HOP-92 = format: cell-based; settings: Non-small cell lung cancer; 10^−5 molar; 48 hours; SRB
NCI-H226 = format: cell-based; settings: Non-small cell lung cancer; 10^−5 molar; 48 hours; SRB
NCI-H23 = format: cell-based; settings: Non-small cell lung cancer; 10^−5 molar; 48 hours; SRB
NCI-H460 = format: cell-based; settings: Non-small cell lung cancer; 10^−5 molar; 48 hours; SRB
NCI-H522 = format: cell-based; settings: Non-small cell lung cancer; 10^−5 molar; 48 hours; SRB
COLO 205 = format: cell-based; settings: Colon cancer; 10^−5 molar; 48 hours; SRB
HCC-2998 = format: cell-based; settings: Colon cancer; 10^−5 molar; 48 hours; SRB
HCT-116 = format: cell-based; settings: Colon cancer; 10^−5 molar; 48 hours; SRB
HCT-15 = format: cell-based; settings: Colon cancer; 10^−5 molar; 48 hours; SRB
HT29 = format: cell-based; settings: Colon cancer; 10^−5 molar; 48 hours; SRB
KM12 = experiment: cells; format: cell-based; settings: Colon cancer; 10^−5 molar; 48 hours; SRB
SW-620 = format: cell-based; settings: Colon cancer; 10^−5 molar; 48 hours; SRB
SF-268 = format: cell-based; settings: CNS cancer; 10^−5 molar; 48 hours; SRB
SF-295 = format: cell-based; settings: CNS cancer; 10^−5 molar; 48 hours; SRB
SF-539 = format: cell-based; settings: CNS cancer; 10^−5 molar; 48 hours; SRB
SNB-19 = format: cell-based; settings: CNS cancer; 10^−5 molar; 48 hours; SRB
SNB-75 = format: cell-based; settings: CNS cancer; 10^−5 molar; 48 hours; SRB
U251 = format: cell-based; settings: CNS cancer; 10^−5 molar; 48 hours; SRB
LOX IMVI = format: cell-based; settings: Melanoma; 10^−5 molar; 48 hours; SRB
MALME-3M = format: cell-based; settings: Melanoma; 10^−5 molar; 48 hours; SRB
M14 = format: cell-based; settings: Melanoma; 10^−5 molar; 48 hours; SRB
MDA-MB-435 = format: cell-based; settings: Melanoma; 10^−5 molar; 48 hours; SRB
SK-MEL-2 = format: cell-based; settings: Melanoma; 10^−5 molar; 48 hours; SRB
SK-MEL-28 = format: cell-based; settings: Melanoma; 10^−5 molar; 48 hours; SRB
SK-MEL-5 = format: cell-based; settings: Melanoma; 10^−5 molar; 48 hours; SRB
UACC-257 = format: cell-based; settings: Melanoma; 10^−5 molar; 48 hours; SRB
UACC-62 = format: cell-based; settings: Melanoma; 10^−5 molar; 48 hours; SRB
IGROV1 = format: cell-based; settings: Ovarian cancer; 10^−5 molar; 48 hours; SRB
OVCAR-3 = format: cell-based; settings: Ovarian cancer; 10^−5 molar; 48 hours; SRB
OVCAR-4 = format: cell-based; settings: Ovarian cancer; 10^−5 molar; 48 hours; SRB
OVCAR-5 = format: cell-based; settings: Ovarian cancer; 10^−5 molar; 48 hours; SRB
OVCAR-8 = format: cell-based; settings: Ovarian cancer; 10^−5 molar; 48 hours; SRB
NCI/ADR-RES = format: cell-based; settings: Ovarian cancer; 10^−5 molar; 48 hours; SRB
SK-OV-3 = format: cell-based; settings: Ovarian cancer; 10^−5 molar; 48 hours; SRB
786-0 = format: cell-based; settings: Renal cancer; 10^−5 molar; 48 hours; SRB
A498 = format: cell-based; settings: Renal cancer; 10^−5 molar; 48 hours; SRB
ACHN = format: cell-based; settings: Renal cancer; 10^−5 molar; 48 hours; SRB
CAKI-1 = format: cell-based; settings: Renal cancer; 10^−5 molar; 48 hours; SRB
RXF 393 = format: cell-based; settings: Renal cancer; 10^−5 molar; 48 hours; SRB
SN12C = format: cell-based; settings: Renal cancer; 10^−5 molar; 48 hours; SRB
TK-10 = format: cell-based; settings: Renal cancer; 10^−5 molar; 48 hours; SRB
UO-31 = format: cell-based; settings: Renal cancer; 10^−5 molar; 48 hours; SRB
PC-3 = format: cell-based; settings: Prostate cancer; 10^−5 molar; 48 hours; SRB
DU-145 = format: cell-based; settings: Prostate cancer; 10^−5 molar; 48 hours; SRB
MCF7 = format: cell-based; settings: Breast cancer; 10^−5 molar; 48 hours; SRB
MDA-MB-231/ATCC = format: cell-based; settings: Breast cancer; 10^−5 molar; 48 hours; SRB
HS 578T = format: cell-based; settings: Breast cancer; 10^−5 molar; 48 hours; SRB
BT-549 = format: cell-based; settings: Breast cancer; 10^−5 molar; 48 hours; SRB
T-47D = format: cell-based; settings: Breast cancer; 10^−5 molar; 48 hours; SRB
MDA-MB-486 = format: cell-based; settings: Breast cancer; 10^−5 molar; 48 hours; SRB
60 cancer cell lines = experiment: NCI 60-cell screen, SRB, whole panel (mean, delta, range); format: cell-based; settings: 10^−5 molar, 48 hours, SRB

O=c1c2ccc(Cl)cc2sc2c(Cl)nc3ccccc3c12 [Compound 3, 6,9-Dichloro-12H-thiochromeno[2,3-c]quinolin-12-one]
Growth percent CCRF-CEM (CCRF-CEM): 93.12% | Growth percent HL-60(TB) (HL-60(TB)): 99.34% | Growth percent K-562 (K-562): 101.04% | Growth percent MOLT-4 (MOLT-4): 98.04% | Growth percent RPMI-8226 (RPMI-8226): 100.19% | Growth percent SR (SR): 89.02% | Growth percent A549/ATCC (A549/ATCC): 104.74% | Growth percent HOP-62 (HOP-62): 82.02% | Growth percent HOP-92 (HOP-92): 90.83% | Growth percent NCI-H226 (NCI-H226): 83.41% | Growth percent NCI-H23 (NCI-H23): 85.12% | Growth percent NCI-H460 (NCI-H460): 103.14% | Growth percent NCI-H522 (NCI-H522): 96.81% | Growth percent COLO 205 (COLO 205): 112.15% | Growth percent HCC-2998 (HCC-2998): 123.28% | Growth percent HCT-116 (HCT-116): 102.27% | Growth percent HCT-15 (HCT-15): 102.28% | Growth percent HT29 (HT29): 99.73% | Growth percent KM12 (KM12): 111.27% | Growth percent SW-620 (SW-620): 99.06% | Growth percent SF-268 (SF-268): 109.60% | Growth percent SF-295 (SF-295): 90.26% | Growth percent SF-539 (SF-539): 89.02% | Growth percent SNB-19 (SNB-19): 107.89% | Growth percent SNB-75 (SNB-75): 77.88% | Growth percent U251 (U251): 101.71% | Growth percent LOX IMVI (LOX IMVI): 90.53% | Growth percent MALME-3M (MALME-3M): 95.87% | Growth percent M14 (M14): 106.18% | Growth percent MDA-MB-435 (MDA-MB-435): 100.64% | Growth percent SK-MEL-2 (SK-MEL-2): 95.54% | Growth percent SK-MEL-28 (SK-MEL-28): 101.80% | Growth percent SK-MEL-5 (SK-MEL-5): 97.42% | Growth percent UACC-257 (UACC-257): 104.47% | Growth percent UACC-62 (UACC-62): 89.69% | Growth percent IGROV1 (IGROV1): 96.06% | Growth percent OVCAR-3 (OVCAR-3): 111.27% | Growth percent OVCAR-4 (OVCAR-4): 87.91% | Growth percent OVCAR-5 (OVCAR-5): 100.07% | Growth percent OVCAR-8 (OVCAR-8): 101.62% | Growth percent NCI/ADR-RES (NCI/ADR-RES): 102.80% | Growth percent SK-OV-3 (SK-OV-3): 101.32% | Growth percent 786-0 (786-0): 105.25% | Growth percent A498 (A498): 106.06% | Growth percent ACHN (ACHN): 86.84% | Growth percent CAKI-1 (CAKI-1): 94.31% | Growth percent RXF 393 (RXF 393): 102.55% | Growth percent SN12C (SN12C): 95.92% | Growth percent TK-10 (TK-10): 108.56% | Growth percent UO-31 (UO-31): 66.06% | Growth percent PC-3 (PC-3): 91.59% | Growth percent DU-145 (DU-145): 114.27% | Growth percent MCF7 (Table 2: MCF) (MCF7): 82.58% | Growth percent MDA-MB-231/ATCC (MDA-MB-231/ATCC): 84.28% | Growth percent HS 578T (HS 578T): 95.14% | Growth percent BT-549 (BT-549): 110.01% | Growth percent T-47D (T-47D): 110.10% | Growth percent MDA-MB-486 (MDA-MB-486): 98.57% | Growth percent, Delta (60 cancer cell lines; delta over the cell panel): 32.05% | Growth percent, Mean (60 cancer cell lines; mean over the cell panel): 98.11% | Growth percent, Range (60 cancer cell lines; range over the cell panel): 57.22% | melting point: 259 to 261 °C
